Laboratory results reported in patent publication US20120003270A1, “6-SUBSTITUTED ISOFLAVONOID COMPOUNDS AND USES THEREOF” (priority 2008, published 2012).

Assays:
PGE2 = PGE2 synthesis in RAW 264.7 (ELISA); assay type: cell-based, mouse; conditions: LPS 50 ng/ml, 16 hrs
Procedure: (§1) The mouse macrophage cell line RAW 264.7 was cultured in DMEM supplemented with foetal calf serum (FCS), 2 mM glutamine and 50 U/ml penicillin/streptomycin. Cells were treated with either test compounds (in 0.025% DMSO) or vehicle alone, and added one hour before 50 ng/ml LPS. After incubation for 16 hrs, culture media was collected for PGE2 or TXB2 measurement by ELISA (Cayman Chemical), and TNFα measurement using an ELISA (Becton Dickinson).

rabbit kidney (RK-13) = test: Toxicity in normal cells (MTT), RK-13; assay type: cell-based; conditions: Oryctolagus cuniculus, RK-13, 120 h, 5 days, top concentration 150 μM, read-out: Normal cell viability IC50
Procedure: (§2) Human neonatal fibroblast foreskin (NFF—a gift from Dr. Peter Parsons, Queensland Institute of Medical Research) or rabbit kidney (RK-13—a gift from Prof. Miller Whalley, Macquarie University) cells were seeded into 96 well plates and cultured in RPMI supplemented with 10% FCS (CSL, Australia), penicillin (100 U/ml), streptomycin ([…]), L-glutamine (2 mM) and sodium bicarbonate (1.2 g/L) at 37° C. and 5% CO2 for 24 hours until cells had attached and entered log phase of growth. Test compounds were added in serial two-fold dilutions from 150 μM in triplicate and incubated for a further 5 days. MTT was then added to each well, incubated for 3 hours at 37° C., after which the medium was tipped off. Following the addition of DMSO, the absorbance for each well was read on a plate reader. The assays were repeated at least twice.

RAW 264.7 = test: Toxicity in RAW 264.7; assay type: cell-based, mouse
TNFα = TNFα synthesis in RAW 264.7 (ELISA); assay type: cell-based, mouse; conditions: LPS 50 ng/ml, 16 hrs
Procedure: as §1

[1] = system: neonatal fibroblast foreskin (NFF); test: Toxicity in normal cells (MTT), NFF; assay type: cell-based; conditions: Homo sapiens, 120 h, 5 days, top concentration 150 μM, read-out: Normal cell viability IC50
Procedure: as §2

THP-1 cells = test: Cytotoxicity in the THP-1 NFκB assay; assay type: cell-based, human; conditions: at active concentrations
[2] = Free radical scavenging (DPPH); assay type: biochemical; conditions: DPPH 0.1 mM, 20 minutes, 517 nm; read-out: Free radical scavenging ability EC50
Procedure: The antioxidant (free radical trapping) activity of test compounds was assessed using the stable free radical compound 2,2-diphenyl-1-picrylhydrazyl (DPPH). A stock solution of DPPH was prepared at a concentration of 0.1 mM in ethanol and mixed for 10 minutes prior to use. Compound (1) was reacted with DPPH for 20 minutes, after which time the absorbance at 517 nm was determined. The change in absorbance at 517 nm was compared to a reagent blank (DPPH with ethanol alone). The IC50 value was estimated as the concentration of the test compound that caused a 0.6 change in absorbance (with 1.2 absorbance units representing total scavenging of the DPPH radical).

NFκB = NFκB promoter activity in transfected THP-1 cells (beta-lactamase reporter); assay type: cell-based, human; conditions: THP-1 cells, TNFα-stimulated
Procedure: The assay utilizes a genetically modified THP-1 cell line and GeneBLAzer® beta-lactamase technology (Invitrogen Corp). The human THP-1 monocyte/macrophages contain a stably-transfected beta-lactamase reporter gene under control of the NFkB response element. They respond to stimulation with TNFα, which leads to activation of the NFkB signaling pathway. Co-incubation of cells with TNFα and test material allows quantitative determination of the ability of test material to inhibit TNFα-stimulated beta-lactamase production. An inflammatory index was calculated as the ratio of beta-lactamase product to beta-lactamase substrate.
In brief, genetically modified THP-1 cells were seeded into wells of a 96-well plate (50×10^3 cells/well) in the presence of RPMI 1640 medium (70 μl). TNFα was added to each well (10 μl) to give a final concentration of 7.5 ng/ml. Dialyzed bovine serum was added (10 μl). Test compounds were dissolved in DMSO (10 μL) (5 wells). Each plate contained a no-cell control (4 wells), a no-serum control (4 wells) and two serum controls. Plates were incubated for 5 h at 37° C. to allow for NFkB-stimulated beta-lactamase production. LiveBLAzer™ FRET B/G Substrate (CCF4-AM) substrate was then added to the assay. CCF4-AM is a Förster resonance energy transfer (FRET) based substrate for beta-lactamase developed by Invitrogen Corp. Once CCFA-AM enters a cell, it is converted to negatively charged CCF4 by endogenous esterases. Excitation of this substrate at 409 nm leads to efficient FRET between the coumarin and fluorescein moieties, resulting in a green fluorescence detectable at 530 nm. The presence of beta-lactamase leads to cleavage of CCF4 and results in a loss of FRET, resulting in a robust blue fluorescent signal detectable at 460 nm. Thus, activity of beta-lactamase (a marker of NFkB-promoter activity) is measured as a product to substrate ratio (blue/green fluorescence ratio: 460 nm/530 nm).

TXA2 = TXA2 synthesis in RAW 264.7 (ELISA); assay type: cell-based, mouse; conditions: LPS 50 ng/ml, 16 hrs
Procedure: as §1

iNOS = test: NO synthesis in LPS-stimulated RAW 264.7 (Griess); assay type: cell-based, mouse; conditions: LPS 50 ng/ml, 16 hrs
Procedure: The mouse macrophage cell line RAW 264.7 was cultured in DMEM supplemented with foetal calf serum (FCS), 2 mM glutamine and 50 U/ml penicillin/streptomycin. Cells were treated with either the compounds of the formula (I) (in 0.025% DMSO) or vehicle alone, and added one hour before 50 ng/ml LPS, which induces iNOS and the production of NO. After incubation for 16 hrs, culture media was collected. Nitrite concentration is a quantitative indicator of NO production and was determined by the Griess Reaction. Briefly, 100 μL of Griess reagent was added to 50 μL of each supernatant in duplicate. The absorbance at 550 nm was measured (Molecular Devices, SpectraMax 250 microplate spectrophotometer, CA, USA), and nitrite concentrations were determined against a standard curve of sodium nitrite.

EC50 [2]: > 100 µM
SMILES: COC(=O)CNCc1cc2c(cc1O)OCC(c1ccc(O)cc1)=C2 [Compound (2)]
PGE2 (PGE2; 1 μM): 3180.37 ± 127.29 pg/mL
PGE2 (PGE2; 10 μM): 2070.69 ± 168.81 pg/mL
IC50 (rabbit kidney (RK-13)): > 150 µM
Effect on the viability of RAW 264.7 cells (RAW 264.7): little effect on the viability
TNFα (TNFα; 1 μM): 35085.88 ± 2273.16 pg/mL
TNFα (TNFα; 10 μM): 46065.55 ± 1234.32 pg/mL
IC50 [1]: 145 ± 8.1 µM
Cytotoxicity (THP-1 cells): absence of cytotoxicity
Effect on promoter activity of NFκB (in words) (NFκB): active at the highest concentration only
TXB2 (TXA2; 1 μM): 16.71 ± 3.43 pg/mL
TXB2 (TXA2; 10 μM): 17.58 ± 7.99 pg/mL
NO (iNOS; 1 μM): 16.41 ± 0.0 µM
NO (iNOS; 10 μM): 10.22 ± 0.15 µM
